Assay results reported in patent publication US6017911A, “Pyridonecarboxylic acid derivatives and intermediates for the synthesis thereof” (Dainippon Pharmaceutical Co., Ltd., priority 1996, dated 2000).
In brackets after ≈: the same amount, converted by molar mass. Where two headings read alike, the source gives them in different places.

Experiments:
[1] = tested on: Staphylococcus aureus MS16405; test: In vitro antibacterial activity (MIC), Staphylococcus aureus MS16405; type: cell-based
[2] = tested on: Staphylococcus aureus 50774; test: Effect on systemic infection in mice; type: in vivo, mice (male Std-ddy strain); details: 168 h; Staphylococcus aureus 50774 i.p. infection; oral, twice (immediately and 6 h after infection); survival 7 days after infection
Method: The effects (ED50; mg/kg) on systemic infection in mice were determined as follows: Male Std-ddy strain mice (weighing about 20 g) were infected with each of the pathogenic bacteria shown in Table 2 by administering 5×10^3 viable cells intraperitoneally to each mouse. Then, a suspension of each test compound in 0.4% carboxymethylcellulose was orally administered twice, i.e., immediately after infection and 6 hours after infection. Seven days after infection, the ED50 value was calculated from the survival rate of each mouse group by probit analysis.
As a reference compound, there was used enoxacin [1-ethyl-6-fluoro-1,4-dihydro-4-oxo-7-(1-piperazinyl-1,8-naphthyridine-3-carboxylic acid; hereinafter abbreviated as ENX] that is an excellent antibacterial agent currently on the market.
The test compounds shown in the following Tables 1 and 2 are identified by the respective numbers of the Examples which will be given later.

[3] = tested on: Pseudomonas aeruginosa No 12; test: In vitro antibacterial activity (MIC), Pseudomonas aeruginosa No 12; type: cell-based; details: NO12, read-out: Minimum inhibitory concentration (MIC)
[4] = tested on: Escherichia coli NIHJ JC-2; test: In vitro antibacterial activity (MIC), Escherichia coli NIHJ JC-2; type: cell-based; details: NIHJJC2, read-out: Minimum inhibitory concentration (MIC)
[5] = tested on: Staphylococcus aureus 50774; test: In vitro antibacterial activity (MIC), Staphylococcus aureus 50774; type: cell-based; details: Staphylococcus aureus 50774; read-out: Minimum inhibitory concentration (MIC)
[6] = Staphylococcus aureus, MS16405, read-out: Minimum inhibitory concentration (MIC)
[7] = Staphylococcus aureus MS16405, read-out: Minimum inhibitory concentration (MIC)

Row | SMILES | MIC [3] [µg/mL] | MIC [4] [µg/mL] | MIC [5] [µg/mL] | MIC [1, 7] [µg/mL] | MIC [1, 6] [µg/mL] | ED50 [2] [mg/kg]
1 | COc1c(N2C[C@H](N)[C@H]3OCC[C@H]32)c(F)cc2c(=O)c(C(=O)O)cn(C3CC3)c12 (relative stereo) [Example 1, 7-[(1R*,5R*,8S*)-8-amino-2-oxa-6-azabicyclo[3.3.0]oct-6-yl]-1-cyclopropyl-6-fluoro-1,4-dihydro-8-methoxy-4-oxoquinoline-3-carboxylic acid] | 0.39 (≈ 0.967 µM) | 0.013 (≈ 0.0322 µM) | ≤ 0.003 |  | 0.39 (≈ 0.967 µM) | 0.36
2 | COc1c(N2C[C@H](N)[C@H]3OCC[C@H]32)c(F)cc2c(=O)c(C(=O)O)cn([C@@H]3C[C@@H]3F)c12 (relative stereo) [Example 2, 7-[(1R*,5R*,8S*)-8-amino-2-oxa-6-azabicyclo[3.3.0]oct-6-yl]-6-fluoro-1-[(1R,2S)-2-fluorocyclopropyl]-1,4-dihydro-8-methoxy-4-oxoquinoline-3-carboxylicacid] | 0.39 (≈ 0.925 µM) | 0.013 (≈ 0.0308 µM) | 0.006 (≈ 0.0142 µM) |  | 0.39 (≈ 0.925 µM) | 0.383
3 | COc1c(N2C[C@H](N)[C@H]3OCC[C@H]32)c(F)c(N)c2c(=O)c(C(=O)O)cn(C3CC3)c12 (relative stereo) [Example 4] | 0.78 (≈ 1.86 µM) | 0.025 (≈ 0.0597 µM) | 0.006 (≈ 0.0143 µM) |  | 0.39 (≈ 0.932 µM) | 0.246
4 | CN[C@H]1CN(c2c(F)cc3c(=O)c(C(=O)O)cn(C4CC4)c3c2OC)[C@@H]2CCO[C@H]12 (relative stereo) [Example 6] | 1.56 (≈ 3.74 µM) | 0.025 (≈ 0.0599 µM) | 0.025 (≈ 0.0599 µM) | 1.56 (≈ 3.74 µM) |  | 0.292
5 | CN[C@H]1CN(c2c(F)c(C)c3c(=O)c(C(=O)O)cn(C4CC4)c3c2OC)[C@@H]2CCO[C@H]12 (relative stereo) [Example 8] | 1.56 (≈ 3.62 µM) | 0.2 (≈ 0.464 µM) | 0.013 (≈ 0.0301 µM) | 3.13 (≈ 7.25 µM) |  | 0.345
6 | CN[C@H]1CN(c2c(F)c(N)c3c(=O)c(C(=O)O)cn(C4CC4)c3c2OC)[C@@H]2CCO[C@H]12 (relative stereo) [Example 9] | 1.56 (≈ 3.61 µM) | 0.05 (≈ 0.116 µM) | 0.025 (≈ 0.0578 µM) | 1.56 (≈ 3.61 µM) |  | 0.415
7 | COc1c(N2C[C@H](N)[C@H]3OCCC[C@H]32)c(F)cc2c(=O)c(C(=O)O)cn(C3CC3)c12 (relative stereo) [Example 10] | 3.13 (≈ 7.5 µM) | 0.1 (≈ 0.24 µM) | 0.013 (≈ 0.0311 µM) |  | 0.39 (≈ 0.934 µM) | 0.465
8 | COc1c(N2C[C@H](N)[C@H]3OCCC[C@H]32)c(F)c(N)c2c(=O)c(C(=O)O)cn(C3CC3)c12 (relative stereo) [Example 12] | 1.56 (≈ 3.61 µM) | 0.1 (≈ 0.231 µM) | 0.013 (≈ 0.0301 µM) | 0.39 (≈ 0.902 µM) |  | 0.715
9 | N[C@H]1CN(c2c(F)cc3c(=O)c(C(=O)O)cn(C4CC4)c3c2OC(F)F)[C@@H]2CCO[C@@H]21 (relative stereo) [Example 14] | 1.56 (≈ 3.55 µM) | 0.025 (≈ 0.0569 µM) | 0.025 (≈ 0.0569 µM) | 1.56 (≈ 3.55 µM) |  | ≤ 0.78
10 | CN[C@H]1CN(c2c(F)cc3c(=O)c(C(=O)O)cn(C4CC4)c3c2Cl)[C@@H]2CCO[C@H]12 (relative stereo) [Example 20] | 1.56 (≈ 3.7 µM) | 0.05 (≈ 0.119 µM) | 0.1 (≈ 0.237 µM) | 3.13 (≈ 7.42 µM) |  | 
11 | C#Cc1c(N2C[C@H](N)[C@H]3OCC[C@H]32)c(F)cc2c(=O)c(C(=O)O)cn(C3CC3)c12 (relative stereo) [Example 27] | 1.56 (≈ 3.93 µM) | 0.025 (≈ 0.0629 µM) | 0.025 (≈ 0.0629 µM) | 1.56 (≈ 3.93 µM) |  | 
12 | COc1c(N2C[C@@H](N)[C@H]3OCCC[C@H]32)c(F)c(N)c2c(=O)c(C(=O)O)cn(C3CC3)c12 (relative stereo) [Example 32] | 1.56 (≈ 3.61 µM) | 0.1 (≈ 0.231 µM) | 0.013 (≈ 0.0301 µM) | 0.78 (≈ 1.8 µM) |  | 
13 | C=Cc1c(N2C[C@H](N)[C@H]3OCC[C@H]32)c(F)cc2c(=O)c(C(=O)O)cn(C3CC3)c12 (relative stereo) [Example 33] | 3.13 (≈ 7.84 µM) | 0.05 (≈ 0.125 µM) | 0.025 (≈ 0.0626 µM) | 1.56 (≈ 3.91 µM) |  | 
14 | N#Cc1c(N2C[C@@H](N)[C@H]3OCCC[C@H]32)c(F)cc2c(=O)c(C(=O)O)cn(C3CC3)c12 (relative stereo) [Example 34] | 1.56 (≈ 3.78 µM) | 0.05 (≈ 0.121 µM) | 0.05 (≈ 0.121 µM) | 6.25 (≈ 15.2 µM) |  | 
15 | CN[C@@H]1CN(c2c(F)cc3c(=O)c(C(=O)O)cn(C4CC4)c3c2OC)[C@@H]2CCO[C@@H]21 (relative stereo) [Example 35] | 3.13 (≈ 7.5 µM) | 0.1 (≈ 0.24 µM) | 0.025 (≈ 0.0599 µM) | 6.25 (≈ 15 µM) |  | 
16 | N[C@@H]1CN(c2c(F)cc3c(=O)c(C(=O)O)cn(C4CC4)c3c2OC(F)F)[C@@H]2CCO[C@H]12 (relative stereo) [Example 37] | 3.13 (≈ 7.12 µM) | 0.1 (≈ 0.228 µM) | 0.05 (≈ 0.114 µM) | 6.25 (≈ 14.2 µM) |  | 
17 | N#Cc1c(N2C[C@H](N)[C@H]3OCC[C@H]32)c(F)cc2c(=O)c(C(=O)O)cn(C3CC3)c12 (relative stereo) [Example 38] | 3.13 (≈ 7.86 µM) | 0.05 (≈ 0.126 µM) | 0.1 (≈ 0.251 µM) |  |  | 
18 | COc1c(N2C[C@@H](N)[C@H]3OC(C)C[C@H]32)c(F)cc2c(=O)c(C(=O)O)cn(C3CC3)c12 (relative stereo) [Example 40, 7-[(1R*,5R*,8R*)-8-amino-3-methyl-2-oxa-6-azabicyclo[3.3.0]oct-6-yl]-1-cyclopropyl-6-fluoro-1,4-dihydro-8-methoxy-4-oxoquinoline-3-carboxylic acid] | 3.13 (≈ 7.5 µM) | 0.1 (≈ 0.24 µM) | 0.025 (≈ 0.0599 µM) | 1.56 (≈ 3.74 µM) |  | 

Further compounds by falling MIC [3], results first:

Row | MIC [3] [µg/mL] | MIC [4] [µg/mL] | MIC [5] [µg/mL] | MIC [1, 7] [µg/mL] | SMILES | MIC [1, 6] [µg/mL] | ED50 [2] [mg/kg]
19 | 0.78 (≈ 1.87 µM) | 0.025 (≈ 0.0599 µM) | ≤ 0.003 | 0.39 (≈ 0.934 µM) | COc1c(N2C[C@H](N)[C@H]3OCC[C@H]32)c(F)c(C)c2c(=O)c(C(=O)O)cn(C3CC3)c12 (relative stereo) [Example 5] |  | 0.257
20 | 0.78 (≈ 1.86 µM) | 0.05 (≈ 0.119 µM) | 0.013 (≈ 0.0311 µM) | 1.56 (≈ 3.73 µM) | COc1c(N2C[C@@H](N)[C@H]3OCC[C@H]32)c(F)c(N)c2c(=O)c(C(=O)O)cn(C3CC3)c12 (relative stereo) [Example 13] |  | 0.778
21 | 0.78 (≈ 1.69 µM) | 0.1 (≈ 0.217 µM) | 0.05 (≈ 0.109 µM) |  | CN[C@H]1CN(c2nc3c(cc2F)c(=O)c(C(=O)O)cn3-c2ccc(F)cc2F)[C@@H]2CCO[C@H]12 (relative stereo) [Example 17] |  | 0.78
22 | 0.78 (≈ 1.93 µM) | 0.025 (≈ 0.062 µM) | ≤ 0.003 | 0.78 (≈ 1.93 µM) | COc1c(N2C[C@@H](N)[C@H]3OCC[C@H]32)c(F)cc2c(=O)c(C(=O)O)cn(C3CC3)c12 (relative stereo) [Example 23] |  | 
23 | 0.78 (≈ 1.94 µM) | 0.025 (≈ 0.0623 µM) | 0.013 (≈ 0.0324 µM) | 1.56 (≈ 3.89 µM) | Cc1c(F)c(N2C[C@H](N)[C@H]3OCC[C@H]32)c(C)c2c1c(=O)c(C(=O)O)cn2C1CC1 (relative stereo) [Example 24] |  | 
24 | 0.78 (≈ 1.83 µM) | 0.05 (≈ 0.117 µM) | 0.013 (≈ 0.0305 µM) | 3.13 (≈ 7.34 µM) | Cc1c(F)c(N2C[C@@H](N)[C@H]3OCCC[C@H]32)c(C#N)c2c1c(=O)c(C(=O)O)cn2C1CC1 (relative stereo) [Example 30] |  | 
25 | 0.78 (≈ 1.69 µM) | 0.2 (≈ 0.434 µM) | 0.025 (≈ 0.0543 µM) | 3.13 (≈ 6.8 µM) | Cc1c(F)c(N2C[C@H](N)[C@H]3OCC[C@H]32)nc2c1c(=O)c(C(=O)O)cn2-c1ccc(F)cc1F (relative stereo) [Example 39, 7-[(1R*,5R*,8S*)-8-amino-2-oxa-6-azabicyclo[3.3.0]oct-6-yl]-6-fluoro-1-(2,4-difluorophenyl)-1,4-dihydro-5-methyl-4-oxo-1,8-naphthyridine-3-carboxylic acid] |  | 
26 | 0.39 (≈ 0.874 µM) | 0.25 (≈ 0.56 µM) | 0.013 (≈ 0.0291 µM) |  | N[C@H]1CN(c2nc3c(cc2F)c(=O)c(C(=O)O)cn3-c2ccc(F)cc2F)[C@@H]2CCO[C@@H]21 (relative stereo) [Example 11] |  | 0.579
27 | 0.39 (≈ 0.928 µM) | 0.013 (≈ 0.0309 µM) | ≤ 0.003 | 0.78 (≈ 1.86 µM) | Nc1c(F)c(N2C[C@@H](N)[C@H]3OCCC[C@H]32)c(F)c2c1c(=O)c(C(=O)O)cn2C1CC1 (relative stereo) [Example 21] |  | 
28 | 0.39 (≈ 1.04 µM) | ≤ 0.003 | 0.05 (≈ 0.134 µM) |  | N[C@H]1CN(c2nc3c(cc2F)c(=O)c(C(=O)O)cn3C2CC2)[C@@H]2CCO[C@@H]21 (relative stereo) [Example 22] |  | 
29 | 0.39 (≈ 1.04 µM) | 0.013 (≈ 0.0348 µM) | 0.05 (≈ 0.134 µM) |  | N[C@H]1CN(c2cc3c(cc2F)c(=O)c(C(=O)O)cn3C2CC2)[C@@H]2CCO[C@@H]21 (relative stereo) [Example 26] |  | 
30 | 0.39 (≈ 0.874 µM) | 0.025 (≈ 0.056 µM) | 0.025 (≈ 0.056 µM) |  | N[C@@H]1CN(c2nc3c(cc2F)c(=O)c(C(=O)O)cn3-c2ccc(F)cc2F)[C@@H]2CCO[C@H]12 (relative stereo) [Example 29] |  | 
31 | 0.2 (≈ 0.492 µM) | 0.006 (≈ 0.0148 µM) | 0.013 (≈ 0.032 µM) | 1.56 (≈ 3.84 µM) | Nc1c(F)c(N2C[C@H](N)[C@H]3OCC[C@H]32)c(F)c2c1c(=O)c(C(=O)O)cn2C1CC1 (relative stereo) [Example 3, 5-Amino-7-[(1R*,5R*,8S*)-8-amino-2-oxa-6-azabicyclo[3.3.0]oct-6-yl]-1-cyclopropyl-6,8-difluoro-1,4-dihydro-4-oxoquinoline-3-carboxylic acid] |  | 0.398
